Source: the supplement of paper PMC6045584
± gives the standard deviation of the averaged measurements.

Experiments:
CABOZANTINIB = compound: COc1cc2nccc(Oc3ccc(NC(=O)C4(C(=O)Nc5ccc(F)cc5)CC4)cc3)c2cc1OC [CABOZANTINIB]; assay: surviving fraction relative to DMSO-only wells; higher = less growth inhibition; settings: exposure time: 5 days
Method in brief: (§1)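 Viability was determined by CellTiter-Glo luminescence, expressed as surviving fraction normalised to the median of DMSO-only wells. The cells were log-phase tumour cell lines seeded at 250–500 per well in 384-well plates and, after 24 hours, exposed continuously for five days to inhibitors at 0.5, 1, 5, 10, 50, 100, 500 and 1000 nM. Three screens per line were run, keeping only lines with replicate Pearson r >0.7 and median Z' >0.3.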

AFIMOXIFENE = compound: CC/C(=C(\c1ccc(O)cc1)c1ccc(OCCN(C)C)cc1)c1ccccc1 [AFIMOXIFENE]; assay: as above; settings: exposure time: 5 days
Method in brief: as §1

Test System	surviving fraction (CABOZANTINIB; 0.5 nM)	surviving fraction (CABOZANTINIB; 1 nM)	surviving fraction (CABOZANTINIB; 5 nM)	surviving fraction (CABOZANTINIB; 10 nM)	surviving fraction (CABOZANTINIB; 50 nM)	surviving fraction (CABOZANTINIB; 100 nM)	surviving fraction (CABOZANTINIB; 500 nM)	surviving fraction (CABOZANTINIB; 1000 nM)	surviving fraction (AFIMOXIFENE; 0.5 nM)	surviving fraction (AFIMOXIFENE; 1 nM)	surviving fraction (AFIMOXIFENE; 5 nM)	surviving fraction (AFIMOXIFENE; 10 nM)	surviving fraction (AFIMOXIFENE; 50 nM)	surviving fraction (AFIMOXIFENE; 100 nM)	surviving fraction (AFIMOXIFENE; 500 nM)	surviving fraction (AFIMOXIFENE; 1000 nM)
SYO1 SYNOVIAL	0.92 ± 0.027	0.938 ± 0.042	0.929 ± 0.037	0.859 ± 0.02	0.807 ± 0.022	0.818 ± 0.044	0.721 ± 0.041	0.694 ± 0.031	0.993 ± 0.023	1.01 ± 0.04	1.04 ± 0.013	1.03 ± 0.072	0.954 ± 0.035	0.982 ± 0.028	0.939 ± 0.023	1.04 ± 0.087
T47D BREAST	0.969 ± 0.016	0.988 ± 0.028	1.02 ± 0.038	1.04 ± 0.075	1.059 ± 0.0083	1.07 ± 0.021	1.07 ± 0.034	1.03 ± 0.022	1.06 ± 0.052	1.11 ± 0.032	0.955 ± 0.0067	0.98 ± 0.048	0.95 ± 0.032	0.958 ± 0.034	0.888 ± 0.024	0.883 ± 0.037
U2OS BONE	1.015 ± 0.0081	1.02 ± 0.028	1.03 ± 0.022	1.003 ± 0.0091	1.03 ± 0.046	1.02 ± 0.015	0.932 ± 0.018	0.914 ± 0.02	1.06 ± 0.056	1.07 ± 0.035	1.08 ± 0.024	1.1 ± 0.022	1.12 ± 0.015	1.1 ± 0.017	1.08 ± 0.057	1.01 ± 0.021
VCAP PROSTATE	0.921 ± 0.16	1.01 ± 0.046	1.05 ± 0.037	0.996 ± 0.07	1.06 ± 0.043	1.026 ± 0.004	0.992 ± 0.065	0.871 ± 0.056	0.993 ± 0.093	1.06 ± 0.1	1.07 ± 0.065	1.11 ± 0.098	1.12 ± 0.11	1.09 ± 0.019	1.07 ± 0.17	0.941 ± 0.075
VP229 BREAST	1.08 ± 0.1	1.04 ± 0.14	1.04 ± 0.15	0.952 ± 0.18	1.15 ± 0.2	0.998 ± 0.12	1.09 ± 0.088	0.966 ± 0.061	1.25 ± 0.37	1.2 ± 0.13	1.09 ± 0.08	1.16 ± 0.13	1.14 ± 0.07	1.16 ± 0.061	0.989 ± 0.21	1 ± 0.13
YAMATO SYNOVIAL	1.19 ± 0.048	1.16 ± 0.076	1.11 ± 0.04	1.01 ± 0.028	0.826 ± 0.044	0.678 ± 0.018	0.374 ± 0.0056	0.373 ± 0.02	1.22 ± 0.14	1.27 ± 0.022	1.37 ± 0.14	1.4 ± 0.037	1.23 ± 0.14	1.28 ± 0.096	1.23 ± 0.066	1.31 ± 0.14
ZR751 BREAST	0.87 ± 0.067	1.02 ± 0.013	1.05 ± 0.083	0.995 ± 0.032	1.04 ± 0.12	1.03 ± 0.086	1.07 ± 0.081	1.03 ± 0.087	1.13 ± 0.23	1.21 ± 0.18	1.09 ± 0.21	1.31 ± 0.19	1.09 ± 0.22	1.07 ± 0.17	1.03 ± 0.19	0.993 ± 0.084
